Assay [1] addresses SNAP-hSPR (sepiapterin reductase, SPR) (Homo sapiens, UniProt P35270). Nature of the assay: biochemical. Format: binding. The following applies: terbium labelled SNAP-hSPR / SSZ labelled SNAP-EGFP; read-out: hTR-FRET IC50.
Description: TR-FRET Assay: A TR-FRET (homogeneous, time-resolved, fluorescence resonance energy transfer) assay was used to assess activity of compounds following standard assay conditions. […] Compounds were screened at different concentrations and IC50 values calculated.
Terbium labelled SNAP-hSPR and SSZ (sulfasalazine) labelled SNAP-EGFP were used as the protein pair in this assay. Compounds were screened at different concentrations, and 1050 and Kd values calculated.
Assay [2] has as its system BH4 levels in SK-N-BE (2) cells. The assay can be described thus: SKN-N-BE (2) cellular assay, BH4 levels by LC-MS. Format: cell-based. The following applies: Homo sapiens, SKNBE2, read-out: SK-N-BE(2) IC50, SK-N-BE (2) cells, BH4 levels by LC-MS.

Here are results for 59 compounds from patent US9963462B2 (priority 2015, dated 2018).

SNAP-hSPR (sepiapterin reductase, SPR), sequence (P35270 whole entry): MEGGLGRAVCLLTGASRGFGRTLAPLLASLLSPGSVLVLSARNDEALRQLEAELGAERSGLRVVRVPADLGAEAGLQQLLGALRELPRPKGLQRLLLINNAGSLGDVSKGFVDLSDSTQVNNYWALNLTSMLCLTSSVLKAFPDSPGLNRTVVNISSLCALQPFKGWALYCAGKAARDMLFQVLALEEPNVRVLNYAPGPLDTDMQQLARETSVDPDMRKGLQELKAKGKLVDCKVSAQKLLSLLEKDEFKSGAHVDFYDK

Usually IC50 stands for the concentration at which inhibition is half-maximal. With `Cc1cc(=O)[nH]c(-n2ncc(C(=O)NC3CCCC3)c2C(F)F)n1` [Q-0331], the IC50 in assay [1] was found to be 80 nM; in assay [2], 15000 nM.
For the compound `Cc1cc(=O)[nH]c(-n2ncc(C(=O)N3CCc4ccccc4C3)c2C(F)F)n1` [Q-0332], the IC50 amounted to 10 nM in assay [1] and 2500 nM in assay [2].
As to `Cc1cc(=O)[nH]c(-n2ccc(C(=O)NC3CCCC3)n2)n1` [Q-0333], the IC50 in assay [1] is 20 nM; in assay [2] it was 12000 nM.
On to `Cc1cc(=O)[nH]c(-n2ncc(C(=O)NC3CCCC3)c2C(F)(F)F)n1` [Q-0334], for which the IC50 was 80 nM in assay [1] and 49000 nM in assay [2].
`Cc1cc(=O)[nH]c(-n2ncc(C(=O)N3CCC(C)(C)C3)c2C)n1` [Q-0341]: the concentration for half-maximal inhibition (IC50) was 5 nM in assay [1] and 1800 nM in assay [2].
The like results for `Cc1cc(=O)[nH]c(-n2ncc(C(=O)N3CCc4ccccc4C3)c2C(F)(F)F)n1` [Q-0342] were, in that order, 10 nM and 2400 nM.
The matching figures for `Cc1cc(=O)[nH]c(-n2ccc(C(=O)N3CCOCC3)n2)n1` [Q-0343]: 100 nM and 40000 nM.
The like results for `Cc1cc(=O)[nH]c(-n2ncc(C(=O)NCc3cnccn3)c2C)n1` [Q-0344] were, in that order, 70 nM and 23000 nM.
As to `Cc1cc(=O)[nH]c(-n2ncc(C(=O)N3CCc4[nH]ncc4C3)c2C)n1` [Q-0345], the values for the half-inhibitory concentration (IC50) in assay [1] and in assay [2] were 10 nM and 78000 nM, respectively.
The matching figures for `CCCN(C)C(=O)c1cnn(-c2nc(C)cc(=O)[nH]2)c1C` [Q-0346]: 8 nM and 5300 nM.
The like results for `CCCN(CC)C(=O)c1cnn(-c2nc(C)cc(=O)[nH]2)c1C` [Q-0347] were, in that order, 10 nM and 7500 nM.
The like results for `CCN(CC)C(=O)c1cnn(-c2nc(C)cc(=O)[nH]2)c1C` [Q-0348] were, in that order, 10 nM and 6400 nM.
As to `Cc1cc(=O)[nH]c(-n2ncc(C(=O)N3CCOCC3)c2C(F)F)n1` [Q-0349], the figures for the IC50 in assay [1] and in assay [2] were 30 nM and 57000 nM, respectively.
`CCN(C)C(=O)c1cnn(-c2nc(C)cc(=O)[nH]2)c1C` [Q-0350]: the IC50 is 20 nM in assay [1] and 11000 nM in assay [2].
The matching figures for `CCCN(CCC)C(=O)c1cnn(-c2nc(C)cc(=O)[nH]2)c1C` [Q-0351]: 10 nM and 4600 nM.
The like results for `Cc1cc(=O)[nH]c(-n2ncc(C(=O)N3CCOCC3)c2C)n1` [Q-0352] were, in that order, 20 nM and 13000 nM.
In the case of `Cc1cc(=O)[nH]c(-n2ncc(C(=O)N3CCc4ccccc4C3)c2CC(C)C)n1` [Q-0353], the IC50 was found to be 50 nM in assay [1] and 15000 nM in assay [2].
The matching figures for `Cc1cc(=O)[nH]c(-n2ncc(C(=O)N3CCc4ccccc4C3)c2Cc2ccccc2)n1` [Q-0358]: 100 nM and 22000 nM.
For `Cc1cc(=O)[nH]c(-n2ncc(C(=O)N3CCC(C(F)(F)F)CC3)c2C)n1` [Q-0359], the IC50 in assay [1] stood at 3 nM; in assay [2], 1100 nM.
Turning to `Cc1cc(=O)[nH]c(-n2ncc(C(=O)NC3CCCc4ccccc43)c2C)n1` (stereo not shown) [Q-0362], the values for the IC50 in assay [1] and in assay [2] were 20 nM and 2900 nM, respectively.
The matching figures for `Cc1cc(=O)[nH]c(-n2ncc(C(=O)NC3CCc4ccccc43)c2C)n1` (stereo not shown) [Q-0363]: 30 nM and 5800 nM.
The like results for `Cc1cc(=O)[nH]c(-n2ncc(C(=O)NCC(F)(F)C(F)(F)F)c2C)n1` [Q-0364] were, in that order, 70 nM and 16000 nM.
The like results for `Cc1cc(=O)[nH]c(-n2nc(C(=O)N3CCc4ccccc4C3)cc2C)n1` [Q-0365, 6-methyl-2-[5-methyl-3-(1,2,3,4-tetrahydroisoquinoline-2-carbonyl)-1H-pyrazol-1-yl]-3,4-dihydropyrimidin-4-one] were, in that order, 50 nM and 12000 nM.
`Cc1cc(=O)[nH]c(-n2cc(C)c(C(=O)N3CCc4ccccc4C3)n2)n1` [Q-0366]: the IC50 in assay [1] turned out to be 400 nM; in assay [2], 128000 nM.
The matching figures for `Cc1cc(=O)[nH]c(-n2ncc(C(=O)NCCC(F)(F)F)c2C)n1` [Q-0367]: 70 nM and 11000 nM.
The like results for `Cc1cc(=O)[nH]c(-n2ncc(C(=O)N3CCCC(C(F)(F)F)C3)c2C)n1` (stereo not shown) [Q-0368] were, in that order, 10 nM and 2900 nM.
The matching figures for `Cc1cc(=O)[nH]c(-n2ncc(C(=O)N3CCN(c4ccccn4)CC3)c2Cc2ccccc2)n1` [Q-0369]: 200 nM and 28000 nM.
Turning to `Cc1cc(=O)[nH]c(-n2ncc(C(=O)NC3CCCC3)c2Cc2ccccc2)n1` [Q-0370], the IC50 in assay [1] came out at 100 nM; in assay [2] it was 22000 nM.
For the compound `Cc1cc(=O)[nH]c(-n2ncc(C(=O)N3CCC(C)(C)C3)c2CC(C)C)n1` [Q-0371], the half-maximal inhibitory concentration (IC50) in assay [1] was found to be 70 nM; in assay [2], 14000 nM.
For the compound `Cc1cc(=O)[nH]c(-n2ncc(C(=O)N(C)C3CCCc4ccccc43)c2C)n1` (stereo not shown) [Q-0373], the results for the concentration for half-maximal inhibition (IC50) in assay [1] and in assay [2] were 20 nM and 1500 nM, respectively.
Turning to `Cc1cc(=O)[nH]c(-n2ncc(C(=O)N(C)C3CCc4ccccc43)c2C)n1` (stereo not shown) [Q-0374], the IC50 in assay [1] stood at 9 nM; in assay [2], 1200 nM.
The like results for `Cc1cc(=O)[nH]c(-n2nc(C)c(C(=O)N3CCc4ccccc4C3)c2C)n1` [Q-0375] were, in that order, 20 nM and 2500 nM.
The matching figures for `Cc1cc(=O)[nH]c(-n2ccc(C(=O)N3CCc4ccccc43)n2)n1` [Q-0376]: 30 nM and 8200 nM.
With `Cc1cc(=O)[nH]c(-n2ccc(C(=O)N3c4ccccc4CC3C)n2)n1` (stereo not shown) [Q-0377], the IC50 in assay [1] amounted to 40 nM; in assay [2], 6300 nM.
For the compound `Cc1c(C(=O)N2CCC(C)(C)C2)cnn1-c1nc2ccsc2c(=O)[nH]1` [Q-0380], the IC50 is 7 nM in assay [1] and 2700 nM in assay [2].
The matching figures for `Cc1nc(-n2ncc(C(=O)N3CCc4ccccc4C3)c2C)[nH]c(=O)c1C` [Q-0381]: 10 nM and 2100 nM.
As to `Cc1c(C(=O)N2CCc3ccccc3C2)cnn1-c1nc2sccc2c(=O)[nH]1` [Q-0382], the IC50 is 3 nM in assay [1] and 100 nM in assay [2].
The matching figures for `Cc1c(C(=O)N2CCc3ccccc3C2)cnn1-c1nc(C(C)(C)C)cc(=O)[nH]1` [Q-0383]: 300 nM and 69000 nM.
For the compound `Cc1cc(=O)[nH]c(-n2ncc(C(=O)NCC3(c4ccccc4)CCCC3)c2C)n1` [Q-0385], the IC50 in assay [1] came to 30 nM; in assay [2], 3800 nM.
The matching figures for `Cc1c(C(=O)N2CCc3ccccc3C2)cnn1-c1ncc(Cl)c(=O)[nH]1` [Q-0387]: 10 nM and 3700 nM.
The matching figures for `O=C(c1ccn(-c2nc3ccsc3c(=O)[nH]2)n1)N1CCc2ccccc2C1` [Q-0388]: 100 nM and 36000 nM.
With `CC1(C)CCN(C(=O)c2ccn(-c3nc4ccsc4c(=O)[nH]3)n2)C1` [Q-0389], the IC50 in assay [1] came out at 20 nM; in assay [2], 5600 nM.
The matching figures for `O=C(c1ccn(-c2nc3ccsc3c(=O)[nH]2)n1)N1CCC(C(F)(F)F)CC1` [Q-0390]: 20 nM and 12000 nM.
For the compound `Cc1c(C(=O)N2CCc3ccccc3C2)cnn1-c1nc(C(F)(F)F)cc(=O)[nH]1` [Q-0393], the IC50 in assay [1] came to 6 nM; in assay [2] it was 800 nM.
The matching figures for `Cc1c(C(=O)N2CCCc3ccccc32)cnn1-c1nc2ccsc2c(=O)[nH]1` [Q-0395]: 20 nM and 500 nM.
The like results for `Cc1c(C(=O)N2CCc3ccccc3C2)cnn1-c1nc2c(c(=O)[nH]1)CCC2` [Q-0396] were, in that order, 2 nM and 61 nM.
The like results for `Cc1c(C(=O)N2CCCC2(C)C)cnn1-c1nc2ccsc2c(=O)[nH]1` [Q-0397] were, in that order, 20 nM and 2300 nM.
For `Cc1c(C(=O)N2CCC3(CCCC3)CC2)cnn1-c1nc2ccsc2c(=O)[nH]1` [Q-0398], the figures for the IC50 in assay [1] and in assay [2] were 10 nM and 72 nM, respectively.
Turning to `Cc1c(C(=O)N2CCC(C(C)(C)C)CC2)cnn1-c1nc2ccsc2c(=O)[nH]1` [Q-0399], the figures for the IC50 in assay [1] and in assay [2] were 3 nM and 24 nM, respectively.
As for `Cc1c(C(=O)N2CCC(C)CC2C)cnn1-c1nc2ccsc2c(=O)[nH]1` (stereo not shown) [Q-0400], the IC50 in assay [1] was 4 nM; in assay [2], 200 nM.
The matching figures for `Cc1c(C(=O)N2c3ccccc3CC2C)cnn1-c1nc2ccsc2c(=O)[nH]1` (stereo not shown) [Q-0401]: 30 nM and 400 nM.
Consider `Cc1c(C(=O)N2CC[C@H]3CCCC[C@H]3C2)cnn1-c1nc2ccsc2c(=O)[nH]1` [Q-0402], for which the figures for the IC50 in assay [1] and in assay [2] were 10 nM and 41 nM, respectively.
The matching figures for `Cc1c(C(=O)N2CCC(C(F)(F)F)C2)cnn1-c1nc2ccsc2c(=O)[nH]1` (stereo not shown) [Q-0403]: 9 nM and 1100 nM.
The like results for `Cc1nc(-n2ncc(C(=O)N3c4ccccc4CC3C)c2C)[nH]c(=O)c1C` (stereo not shown) [Q-0404] were, in that order, 40 nM and 4300 nM.
The matching figures for `Cc1c(C(=O)N2CC(C)(C)OC(C)(C)C2)cnn1-c1nc2ccsc2c(=O)[nH]1` [Q-0405]: 10 nM and 1500 nM.
As for `Cc1c(C(=O)N2CC(C(F)(F)F)CC(C(F)(F)F)C2)cnn1-c1nc2ccsc2c(=O)[nH]1` (stereo not shown) [Q-0406], the IC50 in assay [1] was found to be 50 nM; in assay [2], 2000 nM.
Regarding `Cc1c(C(=O)N2CC[C@H]3CCCC[C@@H]3C2)cnn1-c1nc2ccsc2c(=O)[nH]1` [Q-0408], the figures for the IC50 in assay [1] and in assay [2] were 10 nM and 75 nM, respectively.
For the compound `Cc1cc2nc(-n3ncc(C(=O)N4CCC(C(F)(F)F)CC4)c3C)[nH]c(=O)c2s1` [Q-0409], the IC50 was 200 nM in assay [1] and 25000 nM in assay [2].
The matching figures for `Cc1c(C(=O)N2CCC(C(F)(F)F)CC2)cnn1-c1nc2sccc2c(=O)[nH]1` [Q-0410]: 2 nM and 200 nM.
